Data published in patent US6908897B2, “Covalently bridged insulin dimers” (Aventis Pharma Deutschland GmbH, priority 1999, dated 2005).

Experiments:
[1] = biological target: T1, insulin receptors (Homo sapiens, UniProt P06213); assay: Receptor binding by displacement studies on IM-9 lymphocytes; settings: compared with native insulin
T1 construct: endogenous in cells; host or cells: IM-9 lymphocytes
Experimental: (§1) The receptor binding was determined by displacement studies on IM-9 lymphocytes. The relative biological activity was determined on cultivated 3T3-L1 adipocytes in the form of the glucose transport.

[2] = tested on: 3T3-L1 adipocytes; assay: Relative biological activity as glucose transport in cultivated 3T3-L1 adipocytes; format: cell-based; settings: compared with native insulin
Experimental: as §1

[3] = literature value; cited from earlier work

T1 sequence (P06213 28-758 limits assumed): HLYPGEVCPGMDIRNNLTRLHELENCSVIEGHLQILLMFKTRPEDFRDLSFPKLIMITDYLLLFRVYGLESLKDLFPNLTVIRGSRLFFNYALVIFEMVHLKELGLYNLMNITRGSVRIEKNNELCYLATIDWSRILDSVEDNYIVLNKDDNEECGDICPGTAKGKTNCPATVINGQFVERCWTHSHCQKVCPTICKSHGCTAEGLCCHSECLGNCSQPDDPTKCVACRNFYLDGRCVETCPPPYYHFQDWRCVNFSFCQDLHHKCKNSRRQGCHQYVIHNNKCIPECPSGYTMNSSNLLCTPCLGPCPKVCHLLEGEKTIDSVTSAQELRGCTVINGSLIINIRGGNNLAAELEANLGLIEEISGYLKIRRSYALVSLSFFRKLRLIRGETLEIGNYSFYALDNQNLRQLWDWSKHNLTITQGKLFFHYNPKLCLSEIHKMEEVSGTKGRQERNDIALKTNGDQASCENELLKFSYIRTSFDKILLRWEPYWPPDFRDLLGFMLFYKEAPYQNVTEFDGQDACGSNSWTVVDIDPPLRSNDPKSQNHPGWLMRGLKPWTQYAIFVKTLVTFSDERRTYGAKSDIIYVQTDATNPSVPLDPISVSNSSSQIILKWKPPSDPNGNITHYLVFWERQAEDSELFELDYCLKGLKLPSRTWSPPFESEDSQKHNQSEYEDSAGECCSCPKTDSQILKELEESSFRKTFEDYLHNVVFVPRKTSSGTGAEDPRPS
T1 sequence (P06213 763-1382 partner limits assumed): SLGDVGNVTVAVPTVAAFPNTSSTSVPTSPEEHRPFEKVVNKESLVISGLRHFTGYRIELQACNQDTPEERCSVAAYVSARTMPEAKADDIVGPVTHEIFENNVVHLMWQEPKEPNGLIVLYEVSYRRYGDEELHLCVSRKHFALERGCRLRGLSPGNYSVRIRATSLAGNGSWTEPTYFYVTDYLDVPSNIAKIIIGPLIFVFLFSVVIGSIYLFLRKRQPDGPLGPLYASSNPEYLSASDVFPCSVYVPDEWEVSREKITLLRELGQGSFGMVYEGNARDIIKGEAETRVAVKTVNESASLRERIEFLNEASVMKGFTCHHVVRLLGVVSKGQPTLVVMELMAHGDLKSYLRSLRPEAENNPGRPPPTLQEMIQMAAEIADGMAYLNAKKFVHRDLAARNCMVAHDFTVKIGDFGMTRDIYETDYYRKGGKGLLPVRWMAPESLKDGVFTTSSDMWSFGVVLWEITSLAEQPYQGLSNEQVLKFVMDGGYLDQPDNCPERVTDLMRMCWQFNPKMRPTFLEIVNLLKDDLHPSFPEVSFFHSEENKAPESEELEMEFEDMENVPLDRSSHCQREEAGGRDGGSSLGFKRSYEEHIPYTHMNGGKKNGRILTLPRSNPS

| Substance | Rel. receptor binding [1] [%] | Rel. biol. activity [2] [%] | bioactivity in vitro [3] [%] |
| --- | --- | --- | --- |
| B1,B1′-Sub-[Glu^B26}-des-(B27-B30)-insulin-B26-amide Insulin Dimer | 176 ± 45.8 | 817.5 ± 224 | – |
| B1,B1′-Sub-[Sar^B26]-des-(B27-B30)-insulin-B26-amide Insulin Dimer | 412 ± 94.8 | 1957 ± 575 | – |
| B1,B1′-suberoyl-insulin dimer | – | – | 28.8 |
